In US20020086895A1, “Methods of treating fungal infections” (priority 1985, published 2002):
Read-outs that look alike come from different tables or passages of the source.

Tests used:
[1] = test system: Staphylococcus aureus KLE820; assay: Activity of selected aurones against Staphylococcus aureus KLE820; assay type: cell-based; conditions: read-out: % Inhibition of growth at 10 ug/ml
Excerpt: Compounds described herein also have activity against bacteria.

[2] = test system: Candida albicans (strain ATCC #90028); assay: Inhibition of Candida spp. culture (XTT); assay type: cell-based; conditions: for C. albicans minimum inhibitory concentration (MIC) compared with reported ranges: assay validation; for MIC: Candida albicans, ATCC90028, C. albicans, XTT, 22 hours at 35° C., read-out: antifungal MIC
Protocol: (§1) Candida albicans (strain ATCC #90028), Candida krusei (strain ATCC #90030), and Torulopsis (Candida) glabrata (strain ATCC #6258) were subcultured from cryopreserved stocks onto sabourand dextrose agar plates. Blastoconidia were suspended into RPMI-MOPS (media) and inoculated (500 cfu/well) into 96-well plates containing test compounds in a final volume of 100 μL/well. After 22 hours at 35° C., 25 μL of XTT (2,3-bis(2-methoxy-4-nitro-5-sulfophenyl)-5-[(phenylamino)carbonyl]-2H-tetrazolium hydroxide), (100 μg/mL) with PMS (phenazine methyl sulfate, 5 μM) were added to each well, followed by 2 hours of shaking. Growth was assessed spectrophotometrically by measuring the appearance of soluble formazan stain at 450 nm using an Emax microplate reader.

[3] = test system: nine isolates (Aspergillus and Candida); assay: Standard controls of the antifungal assays of Example 12; assay type: cell-based
Protocol: (§2) Test compounds were tested against nine isolates in an eight-point dose response assay ranging from 50 μg/ml to 0.39 μg/ml. Aspergillus MIC's (minimum inhibitory concentrations) were scored visually after 48 and 72 hours at 37° C. […] Amphotericin B (2.5 μg/ml) and 5-flucytosine (2.0 μg ml) were standard controls for each antifungal assay. […] The results are shown below in Table 4, MIC values in μg/ml after 72 hours. HFF toxicity was analyzed after a 24 hour incubation at 37° C. (5% CO2). MTS/PMS was added, and the sample absorbance was read at 450 nm.

[4] = test system: Candida krusei (strain ATCC #90030); assay: Inhibition of Candida spp. culture (XTT); assay type: cell-based; conditions: Pichia kudriavzevii, ATCC90030, C. krusei, 22 hours at 35° C., read-out: antifungal MIC
Protocol: as §1

[5] = test system: Torulopsis (Candida) glabrata (strain ATCC #6258); assay: Inhibition of Candida spp. culture (XTT); assay type: cell-based; conditions: T. (C.) glabrata, 22 hours at 35° C., read-out: antifungal MIC
Protocol: as §1

C. albicans = assay: Inhibition of C. albicans with drug combinations; assay type: cell-based, Candida albicans
Protocol: as §1
Formula (V) was tested in combination with known antifungal agents amphotericin B and fluconazole. A 10 mg/ml stock solution of formula (V) was diluted in 100% DMSO and stored at −80° C. Fluconazole and Amphotericin B were similarly prepared and stored as a 8 mg/ml stock solution, and a 1.25 mg/ml stock solution, respectively. Each known antifungal agent was added (2 μl/well), then 2 μl/well of the formula (V) solution was added to the designated wells. The remainder of the experiment follows Example 21.

[6] = test system: C. albicans UTR-14, fluconazole-resistant clinical isolate; assay: Fluconazole-resistant candidiasis in mice; assay type: in vivo
[7] = test system: chitin synthase II (CS II); assay: Inhibition of chitin synthase, CS II only; assay type: biochemical, C. albicans
Protocol: Plasma membrane was purified from C. albicans (ATCC #90028) according to Orlean, J. Biol. Chem. 262:5732-5-1987. To minimize proteolysis during plasma membrane preparation, 1% fetal calf serum was incorporated into the homogenization buffer. Plasma membrane was activated by trypsin (125 μg/mg protein) in the presence of 1.5 mM UDP-GLcNAc(c) at 25° C. for 5 minutes. The reaction was stopped by the addition of soybean trypsin inhibitor. The activated membranes (0.125 mg membrane protein/mL) were […], 40 mM GlcNAc, 4 mM ^14C-UDP-GlcNAc (specific: 0.25 mCi/mmol) (New England Nuclear Boston, Mass.) and plant extract (100 μg/mL). The incubation was carried out at 37° C. for 1 hour and terminated with the addition of trichloroacetic acid (10%). The reaction mixture was transferred to a pre-wetted glass fiber filter. The filter was washed with 4×200 μL of a 7:3 solution of 95% EtOH and 1 M acetic acid. The filter was dried under a heat lamp and counted in a Microbeta counter (Wallac, Gaithersburg, Md.) after the addition of 25 μL OPTIPHASE SUPERMIX™ (Wallac) scintillation fluid. Nikkomycin Z and Polyoxin D were used as positive controls (Calbiochem, San Diego, Calif.). Vehicle control was carried out with the same amount of DMSO (2%).
The SOP assay described above was modified to pH 7.5 and 5 mM MgCl2 (instead of CoCl2). […]

[8] = test system: Candida albicans strain #64, sensitive to fluconazole; assay: Fluconazole-sensitive candidiasis in mice; assay type: in vivo
Protocol: Immunocompetent mice (ICR, Sprague-Dawley, Indianapolis, Ind.) were infected with a pathogenic strain (strain #64) of Candida albicans which is sensitive to fluconazole. […] […] […] In addition, the organ fungal load (in CFU) was measured at day 30.

[9] = target: T1, chitin synthase III (CS III) (Candida albicans, UniProt P30573); assay: Inhibition of chitin synthase, CS III only; assay type: biochemical, C. albicans
T1 construct: endogenous in cells
Protocol: Plasma membrane was purified from C. albicans (ATCC #90028) according to Orlean, J. Biol. Chem. 262:5732-5-1987. To minimize proteolysis during plasma membrane preparation, 1% fetal calf serum was incorporated into the homogenization buffer. Plasma membrane was activated by trypsin (125 μg/mg protein) in the presence of 1.5 mM UDP-GLcNAc(c) at 25° C. for 5 minutes. The reaction was stopped by the addition of soybean trypsin inhibitor. The activated membranes (0.125 mg membrane protein/mL) were then assayed in a total of 50 μL reaction mixture containing 50 mM Tris-HCl (pH 8.0) 3 mM CoCl2, 40 mM GlcNAc, 4 mM ^14C-UDP-GlcNAc (specific: 0.25 mCi/mmol) (New England Nuclear Boston, Mass.) and plant extract (100 μg/mL). The incubation was carried out at 37° C. for 1 hour and terminated with the addition of trichloroacetic acid (10%). The reaction mixture was transferred to a pre-wetted glass fiber filter. The filter was washed with 4×200 μL of a 7:3 solution of 95% EtOH and 1 M acetic acid. The filter was dried under a heat lamp and counted in a Microbeta counter (Wallac, Gaithersburg, Md.) after the addition of 25 μL OPTIPHASE SUPERMIX™ (Wallac) scintillation fluid. Nikkomycin Z and Polyoxin D were used as positive controls (Calbiochem, San Diego, Calif.). Vehicle control was carried out with the same amount of DMSO (2%). […]

[10] = test system: C. glabrata (Fluconazole resistant); assay: Inhibition of fungal growth, MIC scored visually; assay type: cell-based, Candida glabrata; conditions: Nakaseomyces glabratus; fluconazole resistant clinical isolate; 24 hour incubation at 35° C.; read-out: Minimum Inhibitory Concentration
C. albicans ATCC90028 = assay: Inhibition of fungal growth, MIC scored visually; assay type: cell-based; conditions: Candida albicans, 24 hour incubation at 35° C., read-out: Minimum Inhibitory Concentration
A. niger = assay: Inhibition of fungal growth, MIC scored visually; assay type: cell-based; conditions: Aspergillus niger
Protocol: as §2

A. funigatis ATCC8001 = assay: Inhibition of fungal growth, MIC scored visually; assay type: cell-based; conditions: Aspergillus fumigatus
Protocol: as §2

C. tropicalis ATCC75O = assay: Inhibition of fungal growth, MIC scored visually; assay type: cell-based; conditions: Candida tropicalis, 24 hour incubation at 35° C., read-out: Minimum Inhibitory Concentration
Protocol: as §2

A.funigatus 94-2766 = assay: Inhibition of fungal growth, MIC scored visually; assay type: cell-based; conditions: Aspergillus fumigatus, 942766
Protocol: as §2

[11] = test system: C. parapsilosis ATCC90018; assay: Inhibition of fungal growth, MIC scored visually; assay type: cell-based, Candida parapsilosis; conditions: Lodderomyces parapsilosis, 24 hour incubation at 35° C., read-out: Minimum Inhibitory Concentration
Protocol: as §2

C. krusei ATCC6258 = assay: Inhibition of fungal growth, MIC scored visually; assay type: cell-based, Candida krusei; conditions: Pichia kudriavzevii, 24 hour incubation at 35° C., read-out: Minimum Inhibitory Concentration
Protocol: as §2

T1 sequence (P30573 whole entry): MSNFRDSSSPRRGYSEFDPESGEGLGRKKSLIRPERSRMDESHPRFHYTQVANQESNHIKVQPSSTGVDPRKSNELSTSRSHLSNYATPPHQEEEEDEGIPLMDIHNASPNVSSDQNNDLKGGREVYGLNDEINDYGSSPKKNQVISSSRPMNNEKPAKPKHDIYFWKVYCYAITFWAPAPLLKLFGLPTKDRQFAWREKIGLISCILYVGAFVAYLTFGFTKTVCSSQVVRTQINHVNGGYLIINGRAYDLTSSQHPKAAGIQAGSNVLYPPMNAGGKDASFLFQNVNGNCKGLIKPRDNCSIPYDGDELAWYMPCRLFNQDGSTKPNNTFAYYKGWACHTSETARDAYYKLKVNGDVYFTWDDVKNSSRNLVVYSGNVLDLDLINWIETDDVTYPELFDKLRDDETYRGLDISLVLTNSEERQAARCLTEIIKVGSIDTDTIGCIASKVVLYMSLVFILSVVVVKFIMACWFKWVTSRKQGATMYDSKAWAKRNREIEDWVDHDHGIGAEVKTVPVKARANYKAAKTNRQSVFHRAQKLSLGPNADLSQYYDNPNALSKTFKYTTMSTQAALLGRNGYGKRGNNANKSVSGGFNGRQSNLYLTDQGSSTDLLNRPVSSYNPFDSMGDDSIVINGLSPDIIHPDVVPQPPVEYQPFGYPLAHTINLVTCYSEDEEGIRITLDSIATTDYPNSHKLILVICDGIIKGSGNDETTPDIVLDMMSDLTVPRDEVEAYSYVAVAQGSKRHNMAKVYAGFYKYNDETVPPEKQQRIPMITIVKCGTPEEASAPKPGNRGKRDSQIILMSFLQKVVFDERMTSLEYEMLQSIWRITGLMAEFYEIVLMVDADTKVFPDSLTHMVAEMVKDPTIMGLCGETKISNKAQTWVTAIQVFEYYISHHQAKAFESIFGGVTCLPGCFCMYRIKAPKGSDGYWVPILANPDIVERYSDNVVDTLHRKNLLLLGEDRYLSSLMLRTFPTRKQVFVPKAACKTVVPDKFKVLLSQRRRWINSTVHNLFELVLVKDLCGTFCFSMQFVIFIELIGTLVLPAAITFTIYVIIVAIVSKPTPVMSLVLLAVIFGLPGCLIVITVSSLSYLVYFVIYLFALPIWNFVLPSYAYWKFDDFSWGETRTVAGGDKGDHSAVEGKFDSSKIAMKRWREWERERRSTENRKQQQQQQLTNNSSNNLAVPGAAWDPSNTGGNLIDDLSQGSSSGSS

`COc1ccc(/C=C2\Oc3cc(O)c(C/C=C/c4ccccc4)c(O)c3C2=O)cc1` was tested, and the inhibition at 10 µg/mL [1] was 83%.

In the case of `O=C1/C(=C/c2cc([N+](=O)[O-])ccc2O)Oc2cc(O)c(Cc3ccccc3)c(O)c21`, the inhibition at 10 µg/mL [1] is reported as 100%.

`O=C1/C(=C/c2c(Br)cc(Br)c(O)c2Br)Oc2cc(O)c(Cc3ccccc3)c(O)c21` gave an inhibition at 10 µg/mL [1] of 100%.

For `CCCCCOc1ccc(/C=C2\Oc3cc(O)cc(O)c3C2=O)cc1`, the inhibition at 10 µg/mL [1] was 98.6%.

`C=CCc1c(O)cc2c(c1O)C(=O)/C(=C/c1ccc(-c3ccccc3C(F)(F)F)o1)O2` gave an inhibition at 10 µg/mL [1] of 76.5%.

`Nc1nc(=O)[nH]cc1F` [5-flucytosine] was tested, and the “C. albicans minimum inhibitory concentration (MIC) compared with reported ranges” value [2] was “within reported ranges” and the “inhibition by standard control” value ([3]; 2.0 μg ml) was “total inhibition”.

In the case of `C[C@@H]1[C@H](O)[C@@H](C)/C=C/C=C/C=C/C=C/C=C/C=C/C=C/[C@H](O[C@@H]2O[C@H](C)[C@@H](O)[C@H](N)[C@@H]2O)C[C@@H]2O[C@](O)(C[C@@H](O)C[C@@H](O)[C@H](O)CC[C@@H](O)C[C@@H](O)CC(=O)O[C@H]1C)C[C@H](O)[C@H]2C(=O)O` [Amphotericin B], the “C. albicans minimum inhibitory concentration (MIC) compared with reported ranges” value [2] is reported as “within reported ranges” and the “inhibition by standard control” value ([3]; 2.5 μg/ml) is reported as “total inhibition”.

`CC(C)=CCc1c(O)cc2c(c1O)C(=O)C(=Cc1ccc(O)c(O)c1)O2` [Formula (V), 5-prenylaureusidin] gave an MIC [4] of 6.25 µg/mL, an MIC [5] of 6.25 µg/mL and an MIC [2] of 12.5 µg/mL. The “combination effect with Amphotericin B” value (C. albicans; in combination with Amphotericin B) was “apparent synergy”, the “combination effect with fluconazole” value (C. albicans; in combination with fluconazole) was “apparent additivity” and the “percent survival after 20 days” value ([6]; 40 mg per kg body weight p.o.) was “about 80%”. For the same compound, the IC50 [7] was 223 µM, the “percent survival after 30 days” value ([8]; 20 mg per kg body weight i.p., once a day for 10 days) was “about 70%” and the “percent survival after 30 days” value ([8]; 40 mg per kg body weight p.o., once a day for 10 days) was “about 60%”. The “fungal load reduction in each organ” value ([8]; day 30) was “over 99%” and the IC50 [9] was 107 µM.

`CC(C)=CCc1c(O)cc2c(c1O)C(=O)/C(=C\c1cc(O)c(O)cc1-c1c(O)cc3c(c1O)C(=O)/C(=C\c1ccc(O)c(O)c1)O3)O2` [Formula (VI)] showed an MIC [4] of 7.48 µg/mL, an MIC [5] of 1.74 µg/mL and an MIC [2] of 25 µg/mL.

In the case of `CC(C)(C)c1ccc(/C=C2\Oc3cc(O)cc(O)c3C2=O)cc1` [Formula S02], the MIC [10] is reported as 0.39 µg/mL, the MIC (C. albicans ATCC90028) is reported as 12.5 µg/mL and the MIC (A. niger; clinical isolate, value outside parentheses, read-out: Minimum Inhibitory Concentration) is reported as > 50 µg/mL. The MIC (A. niger; value in parentheses, not defined (scored after 48 and 72 hours), read-out: Minimum Inhibitory Concentration (value in parentheses)) was > 50 µg/mL, the MIC (A. funigatis ATCC8001; ATCC8001, ATCC8001 (X2), value outside parentheses, read-out: Minimum Inhibitory Concentration) was 6.25 µg/mL and the MIC (A. funigatis ATCC8001; ATCC8001, read-out: Minimum Inhibitory Concentration (value in parentheses), ATCC8001 (X2), value in parentheses, not defined (scored after 48 and 72 hours)) was > 50 µg/mL. The MIC (A. funigatis ATCC8001; ATCC8001, read-out: Minimum Inhibitory Concentration, ATCC8001 (X1), 37° C.) was 12.5 µg/mL, the MIC (C. tropicalis ATCC75O) was 12.5 µg/mL and the MIC (A.funigatus 94-2766; 94-2766, value in parentheses, not defined (scored after 48 and 72 hours), read-out: Minimum Inhibitory Concentration (value in parentheses)) was > 50 µg/mL. It also gave an MIC (A.funigatus 94-2766; 94-2766 clinical isolate, value outside parentheses, read-out: Minimum Inhibitory Concentration) of 6.25 µg/mL, an MIC [11] of 6.25 µg/mL and an MIC (C. krusei ATCC6258) of 6.25 µg/mL.

In the case of `C[C@@H]([C@H](N)C(=O)N[C@H](C(=O)O)[C@H]1O[C@@H](n2ccc(=O)[nH]c2=O)[C@H](O)[C@@H]1O)[C@H](O)c1ccc(O)cn1` [Nikkomycin Z, reference compound], the “C. albicans minimum inhibitory concentration (MIC) compared with reported ranges” value [2] is reported as “within reported ranges” and the “CS II remaining” value ([7]; 10 μM Nikkomycin Z, pH 7.5, 5 mM MgCl2) is reported as 75%.

`OC(Cn1cncn1)(Cn1cncn1)c1ccc(F)cc1F` [fluconazole, reference compound] was tested, and the “C. albicans minimum inhibitory concentration (MIC) compared with reported ranges” value [2] was “within reported ranges”, the “percent survival after 20 days” value ([6]; 40 mg per kg body weight p.o. (twice daily)) was 0% and the “percent survival after 30 days” value ([8]; 40 mg per kg body weight, twice a day) was “about 30%”.
